# Experimental data published in BindingDB's records for doi:10.1021/jm970815r (Eisai, 1998).
# pIC50: −log10 of the molar value.
# Assay: Inhibition of Phosphodiesterase 5 from porcine platelets
row,pIC50,SMILES
1,7.31,CCOc1ccc(CNc2nnc(Cl)c3ccc(C#N)cc23)cc1Cl [1-Chloro-4-(3-chloro-4-ethoxy-benzylamino)-phthalazine-6-carbonitrile]
2,6.09,"COc1ccc(CNc2nnc(Cl)c3cc(Cl)ccc23)cc1Cl [(3-Chloro-4-methoxy-benzyl)-(4,6-dichloro-phthalazin-1-yl)-amine]"
3,8.32,COc1ccc(CNc2nnc(Cl)c3ccc(C#N)cc23)cc1Cl
4,8.28,COc1ccc(CNc2nnc(Cl)c3ccc(C(F)(F)F)cc23)cc1Cl [(3-Chloro-4-methoxy-benzyl)-(4-chloro-7-trifluoromethyl-phthalazin-1-yl)-amine]
5,6.85,COc1ccc(CNc2nnc(Cl)c3cc(C#N)ccc23)cc1Cl [4-Chloro-1-(3-chloro-4-methoxy-benzylamino)-phthalazine-6-carbonitrile]
6,7.20,"O=[N+]([O-])c1ccc2c(Cl)nnc(NCc3ccc4c(c3)OCO4)c2c1 [Benzo[1,3]dioxol-5-ylmethyl-(4-chloro-7-nitro-phthalazin-1-yl)-amine]"
7,6.85,COc1ccc(CNc2nnc(Cl)c3ccc(C#N)cc23)cc1 [1-Chloro-4-(4-methoxy-benzylamino)-phthalazine-6-carbonitrile]
8,8.46,COc1ccc(CNc2nnc(Cl)c3ccc([N+](=O)[O-])cc23)cc1Cl [(3-Chloro-4-methoxy-benzyl)-(4-chloro-7-nitro-phthalazin-1-yl)-amine]
